From US8809310B2, “Use of rasagiline for the treatment of multiple system atrophy” (priority 2006, dated 2014)
Where two headings read alike, the source gives them in different places.

Legend:
[1] = tested on: (PLP) α-synuclein transgenic mice; details: daily rating, whole experimental period
Protocol: Behavioral tests were performed blindly to the treatment status according to the following procedures and described in Fernagut et al.: clinical scale, stride length, spontaneous locomotor activity.
The groups were evaluated daily during the whole experimental period with a general motor score according to a previously published rating scale.
A previously described rating scale (Fernagut et al., Subacute systemic 3-nitropropionic acid intoxication induces a distinct motor disorder in adult C57B1/6 mice: Behavioural and histopathological characterization, Neuroscience 2002; 114:1005-17) was used for evaluation of hindlimb clasping, general locomotor activity, hindlimb dystonia, truncal dystonia and postural challenge response (0, normal; 1 slightly disturbed, and 2 markedly disabled). […] A total daily score per animal for each session was determined as well as a total sum score per animal per group for the whole testing period.

[2] = tested on: (PLP) α-synuclein transgenic mice; details: fourth week (day 25)
Protocol: The pole test (Id.; and Matsuura et al., Pole test is a useful method for evaluating the mouse movement disorder caused by striatal dopamine depletion, Journal of Neuroscience Methods 1997; 73:45-8) was performed on day 17 and day 25 of the experiment. Each mouse was habituated to the test the day before. A wooden vertical pole with rough surface, 1 cm wide and 50 cm high was applied. The mouse was placed with the head up at the top of the pole and the time for turning downwards (Tturn) as well as the total time for climbing down the pole until the mouse reached the floor with the four paws (Ttotal) was taken in 5 trials. The best performance of all the five trials was kept for the statistical analysis (Fernagut et al., In vivo models of multiple system atrophy, Mov Disord. 2005; 20 Suppl 12:S57-S63). If a mouse was unable to perform the test, a default value of 120 s was taken into account.

[3] = tested on: (PLP) α-synuclein transgenic mice
Protocol: The stride length of the hindlimbs of the mice was measured at baseline and before sacrificing them after a habituation to the test for 3 days before its performance. The limbs of each animal were wetted with a non-toxic food color and the mouse was let to run on a strip of paper (42 cm long, 4.5 cm wide) down a bright corridor towards a dark goal box. After four runs, the stride length of the forelimbs and the hindlimbs on each side was measured, excluding the beginning (7 cm) and the end (7 cm) of the run. The mean stride length for was determined.
Stride length test was performed on day 18-19 and day 27-28 after first 3-NP intoxication.

[4] = molecular target: MAO-A (Mus musculus, UniProt Q64133); details: for MAO-A activity (mean dpm ± SD): MSA mice, brain homogenate, 14C-HT 100 μM, end of experiment
MAO-A, sequence (Q64133 whole entry): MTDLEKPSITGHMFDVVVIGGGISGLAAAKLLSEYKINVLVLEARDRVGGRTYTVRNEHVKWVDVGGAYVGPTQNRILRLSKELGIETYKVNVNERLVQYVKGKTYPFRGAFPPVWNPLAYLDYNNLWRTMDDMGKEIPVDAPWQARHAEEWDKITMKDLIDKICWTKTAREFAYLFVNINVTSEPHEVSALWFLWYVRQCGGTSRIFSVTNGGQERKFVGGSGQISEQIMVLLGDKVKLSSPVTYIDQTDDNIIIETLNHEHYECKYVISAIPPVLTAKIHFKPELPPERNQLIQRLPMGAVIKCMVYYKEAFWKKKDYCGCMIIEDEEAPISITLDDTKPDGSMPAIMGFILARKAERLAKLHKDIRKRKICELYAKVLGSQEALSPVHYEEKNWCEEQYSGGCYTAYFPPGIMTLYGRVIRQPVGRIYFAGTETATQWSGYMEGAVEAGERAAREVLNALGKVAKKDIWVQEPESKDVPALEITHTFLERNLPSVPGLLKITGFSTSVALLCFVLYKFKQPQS
Protocol: (§1) Efficacy of Rasagiline treatment was determined by biochemical measurement of the inhibition of MAO-A and MAO-B activity in the different treatment groups. Two mice per group were sacrificed under deep thiopental anesthesia by cervical […]. Brains were immediately removed and snap-frozen in liquid nitrogen and further stored at −80° C. Tissue homogenates were preincubated with clorgyline or deprenyl in order to inhibit MAO-A or MAO-B respectively. Incubation was carried on with 14C-labeled PEA (10 μM) for MAO-B determination and 14C-HT (100 μM) for MAO-A determination. Reaction was stopped by acidification and labeled metabolites were extracted into toluene/ethyl acetate and counted by beta-counter.

[5] = molecular target: MAO-B (Mus musculus, UniProt Q8BW75); details: for MAO-B activity (mean dpm ± SD): MSA mice, brain homogenate, 14C-PEA 10 μM, end of experiment
MAO-B, sequence (Q8BW75 whole entry): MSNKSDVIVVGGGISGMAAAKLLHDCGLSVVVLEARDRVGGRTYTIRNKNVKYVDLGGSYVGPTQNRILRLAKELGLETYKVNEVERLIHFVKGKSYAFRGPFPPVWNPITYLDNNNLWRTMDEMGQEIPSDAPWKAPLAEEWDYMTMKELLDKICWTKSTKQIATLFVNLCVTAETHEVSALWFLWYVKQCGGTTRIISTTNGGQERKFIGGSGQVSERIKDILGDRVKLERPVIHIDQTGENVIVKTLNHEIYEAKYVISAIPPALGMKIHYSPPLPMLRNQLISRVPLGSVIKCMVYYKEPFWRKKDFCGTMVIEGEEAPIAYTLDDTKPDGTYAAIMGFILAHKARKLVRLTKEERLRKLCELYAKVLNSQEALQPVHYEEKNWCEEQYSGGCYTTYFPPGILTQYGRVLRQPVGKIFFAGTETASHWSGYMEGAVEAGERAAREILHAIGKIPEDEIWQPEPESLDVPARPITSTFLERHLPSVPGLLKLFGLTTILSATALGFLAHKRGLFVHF
Protocol: as §1

[6] = tested on: (PLP) α-synuclein transgenic mice; details: mouse, in vivo
Text: (§2) Sections underwent the following immunohistochemical stainings: tyrosinehydroxylase antibody (Sigma) used to visualize dopaminergic neurons in SNc, dopamine and cyclic adenosine 3′,5′-monophosphate-regulated phosphoprotein 32 (DARPP-32)(New York Hospital-Cornell Medical Centre) used to visualize medium sized spiny neurons in striatum and Purkinje cells in cerebellar cortex, Glial Fibrillary Acidic Protein (GFAP)(Roche Diagnostics GmBH) used to visualize astroglial reaction, CD11b (Serotec) used to visualize microglial reaction and Bcl-2, Bcl-X1 and Bax apoptic/anti-apoptotic markers. One full series was stained with cresyl violet.
(§3) The following antibodies were used in this study: monoclonal anti-DARPP-32 (1:2000), monoclonal anti-TH (Sigma, St. Louis, Mo., 1:500), monoclonal anti-GFAP (Roche, Vienna, Austria 1:100), monoclonal anti-CD11b (Serotec, Oxford, UK, 1:100), polyclonal anti-activated capase 3 (Transduction Laboratories, Lexington, Ky., 1:200), monoclonal anti-Bax (Santa Cruz Biotechnology, 1:100), monoclonal anti-Bc12 (Santa Cruz Biotechnology, 1:100), and monoclonal anti-BclX (Chemicon, Temecula, Calif., 1:100). Secondary antibodies were biotinylated horse anti-mouse IgG, goat anti-rat IgG, or goat anti-rabbit IgG (Vector, Burlingame, Calif.). Immunohistochemical reaction was developed with 3,3′-diaminobenzidine.

[7] = tested on: early Parkinson's disease patients; details: rasagiline-treated subjects; cited from earlier work
[8] = tested on: (PLP) α-synuclein transgenic mice; remark: listed apart in the source
Protocol: Neuropathological examination of the brains was performed after transcardial perfusion of 4% paraformaldehyde (PFA) under deep thiopental anesthesia. Brains were quickly removed, postfixed in the same fixative for 1 hour at 4° C., and then kept in 25% sucrose solution until they sunk. The brains were slowly frozen in with 2-methylbutan and kept at −80° C. until processing. Serial sections throughout the whole brain were cut on a freezing microtome (Leica, Nussloch, Germany).
as §2, §3
All morphometric analyses were done blinded to the treatment of the animal's observer. Stereology was applied using a computer-assisted image analysis system (Nikon E-800 microscope, Nikon digital camera DXM 1200; Stereo Investigator Software, MicroBrightField Europe e.K., Magdeburg, Germany). […] Purkinje cells in the cerebellum and glial reaction throughout the entire brain are analyzed to the Paxinos and Franklin mouse brain atlas (1997, Academic Press, San Diego). Purkinje cells were counted in a region outlined to include only the Purkinje cell layer (German et al., Degeneration of neurons and glia in the Niemann-Pick C mouse is unrelated to the low-density lipoprotein receptor. Neuroscience, 2001; 105:999-1005).

[9] = tested on: (PLP) α-synuclein transgenic mice; details: MSA mice (3-NP +), N=10
Text: A suitable model for MSA is described by Stefanova et al. (Am. J. Pathol. March 2005, 166(3):869-76; Trends Neurosci. 2005, 28(9):501-6). This model acts by inducing oxidative stress in transgenic mice with oligodendroglial α-synuclein expression. […] The selective neuronal cell death pattern typical of MSA is achieved by combining mitochondrial inhibition by 3-nitropropionic acid (3-NP).
A total of 36 (PLP) α-synuclein transgenic mice over 6 months of age were used.
Chronic intoxication with 3-NP was done according to a previously used paradigm pathiology (i.e. 4×10 mg/kg, 4×20 mg/kg, 4×40 mg/kg, 4×50 mg/kg intraperitoneal injections every 12th hour for a period of two weeks) to model MSA pathology.
The mice were further divided into groups as follows: Control group (saline tested, n=10), low dose rasagiline group (0.6 mg/kg; n=10) and high dose rasagiline group ([…]; n=10). Rasagiline was delivered subcutaneously every 24 hours starting 24 hours one week before the intoxication with 3-NP and lasting for an additional week, i.e., for a total period of 4 weeks.

[10] = tested on: (PLP) α-synuclein transgenic mice; details: any of the time points studied (day 16, day 26)
Protocol: To test the locomotor activity of the mice we applied the Flex Field Activity System, (San Diego Instruments, San Diego, Calif.) which allows monitoring and real-time counting of horizontal and vertical locomotor activity by 544 photo-beam channels. Mice were placed in the center of the open field (40.5×40.5×36.5 cm) and tested for a 15 min period always at the same time of the day (5.00 p.m.). The tests were performed in a dark room that was completely isolated from external noises and light during the test period. The sum of counts in the horizontal and vertical plane at day 16 and on day 26 of the experiment was further analyzed.

[11] = 2.5 mg/kg daily for 4 weeks, without reaching neuronal numbers of healthy controls

With `C#CCN[C@@H]1CCc2ccccc21` [Rasagiline, R(+)-N-propargyl-1-aminoindan] the “general motor impairment (general motor score)” value [1] was “significant improvement”, the “pole test T-total (prolonged movement time)” value [2] was “significantly reduced” and the “pole test T-turn (prolonged movement time)” value [2] was “significantly reduced”. The stride length ([3]; day 18-19) was “reversed shortened stride length”, the stride length ([3]; day 27-28) was “reversed stride length impairment” and the “MAO-A activity (mean dpm ± SD)” value ([4]; Rasagiline 0.8 mg/kg) was 1463.10 ± 219 dpm. The “MAO-A activity (mean dpm ± SD)” value ([4]; Rasagiline 2.5 mg/kg) was 724.06 ± 65 dpm, the “inhibition of MAO activity (MAO-A)” value ([4]; both concentrations) was “significant inhibition” and the “MAO-B activity (mean dpm ± SD)” value ([5]; Rasagiline 0.8 mg/kg) was 370.01 ± 321 dpm. The “MAO-B activity (mean dpm ± SD)” value ([5]; Rasagiline 2.5 mg/kg) was 80.94 ± 14 dpm, the “inhibition of MAO activity (MAO-B)” value ([5]; both concentrations) was “significant inhibition” and the “CD11b staining pattern (microglial activation), treated vs untreated mice” value [6] was “No differences”. For the same compound, the “GFAP staining pattern (astroglial activation), treated vs untreated mice” value [6] was “No differences”, the “most commonly reported adverse events” value [7] was “pain, headache and dizziness” and the “side effects typical of other dopaminergic medications (hallucinations, somnolence, edema, nausea, vomiting, diarrhea)” value [7] was “infrequently reported”. The “protection of Purkinje cells” value [8, 11] was “partial protection”, the “protection of neurons of the inferior olives” value [8, 11] was “partial protection” and the “protection of pontine nuclei against 3-NP intoxication” value ([8]; mouse, in vivo) was “completely protected”. The “loss of striatal DARPP-32-immunoreactive medium spiny neurons” value ([8]; striatum, did not reach levels of non-intoxicated controls) was “partially prevented”, the “loss of TH-immunopositive neurons in SNc” value ([8]; substantia nigra pars compacta) was “completely protected” and the “Mortality N (%)” value ([9]; Rasagiline 0.8 mg/kg b.w.) was 2 (20) N (%). For the same compound, the “Mortality N (%)” value ([9]; Rasagiline 2.5 mg/kg b.w.) was 1 (10) N (%), the open field activity [10] was “observed neither upon open field activity” and the rearing behavior [10] was “nor on rearing behavior”.
